Laboratory results from EP4722213A1, “NITROGEN-CONTAINING FUNCTIONAL GROUP-SUBSTITUTED PYRIDAZINOPYRIDONE DERIVATIVE AND USE THEREOF” (Sichuan Huiyu Pharmaceutical Co., Ltd., priority 2023, dated 2024).
Structures can show the parent of a compound that is named as a salt.

Biological target: T1, SOS1 (Homo sapiens, UniProt Q07889)
T1 sequence (Q07889 1-1333): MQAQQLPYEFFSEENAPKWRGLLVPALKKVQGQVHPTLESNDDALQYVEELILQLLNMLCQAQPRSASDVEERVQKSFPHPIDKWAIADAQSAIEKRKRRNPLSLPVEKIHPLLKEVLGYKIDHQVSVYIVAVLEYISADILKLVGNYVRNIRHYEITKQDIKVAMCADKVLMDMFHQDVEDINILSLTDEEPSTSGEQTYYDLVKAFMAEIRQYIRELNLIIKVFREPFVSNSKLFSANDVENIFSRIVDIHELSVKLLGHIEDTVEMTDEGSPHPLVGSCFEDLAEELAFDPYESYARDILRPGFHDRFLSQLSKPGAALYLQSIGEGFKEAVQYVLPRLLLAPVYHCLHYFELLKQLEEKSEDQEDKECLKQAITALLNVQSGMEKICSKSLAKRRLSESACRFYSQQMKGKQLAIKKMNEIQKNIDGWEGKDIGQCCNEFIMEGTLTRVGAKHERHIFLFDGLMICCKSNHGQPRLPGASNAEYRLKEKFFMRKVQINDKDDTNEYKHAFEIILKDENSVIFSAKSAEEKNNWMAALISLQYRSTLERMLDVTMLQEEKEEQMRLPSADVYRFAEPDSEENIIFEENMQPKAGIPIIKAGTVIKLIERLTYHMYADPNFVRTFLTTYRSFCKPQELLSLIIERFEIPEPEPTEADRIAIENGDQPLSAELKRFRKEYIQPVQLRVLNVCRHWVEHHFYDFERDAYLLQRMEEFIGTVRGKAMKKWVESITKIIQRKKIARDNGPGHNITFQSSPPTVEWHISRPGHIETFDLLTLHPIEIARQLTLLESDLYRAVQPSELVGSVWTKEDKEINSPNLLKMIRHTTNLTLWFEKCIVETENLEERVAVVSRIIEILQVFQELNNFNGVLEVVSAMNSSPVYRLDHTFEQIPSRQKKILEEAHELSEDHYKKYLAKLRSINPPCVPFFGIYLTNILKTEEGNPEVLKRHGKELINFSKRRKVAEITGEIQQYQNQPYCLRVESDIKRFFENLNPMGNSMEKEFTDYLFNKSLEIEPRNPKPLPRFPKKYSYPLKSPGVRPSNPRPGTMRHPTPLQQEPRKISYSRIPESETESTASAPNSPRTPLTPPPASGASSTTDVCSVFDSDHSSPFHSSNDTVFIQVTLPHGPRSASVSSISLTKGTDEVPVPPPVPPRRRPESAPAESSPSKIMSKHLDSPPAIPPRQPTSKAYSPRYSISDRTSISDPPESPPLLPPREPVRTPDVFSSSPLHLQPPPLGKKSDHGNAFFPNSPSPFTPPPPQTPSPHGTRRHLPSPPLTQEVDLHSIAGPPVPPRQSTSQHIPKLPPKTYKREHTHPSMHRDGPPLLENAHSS
Test: biochemical

SMILES	IC50
C[C@@H](Nc1nnc(N2CC3CCC(C2)O3)c2cc(=O)n(C3(C)CC3)cc12)c1cccc(C(F)F)c1F [Example 198, 1-(8-oxa-3-azabicyclo[3.2.1]octan-3-yl)-4-(((R)-1-(3-(difluoromethyl)-2-fluorophenyl)ethyl)amino)-6-(1-methylcyclopropyl) pyrido[3,4-d]pyridazin-7(6H)-one]	13.6 nM
C[C@@H](Nc1nnc(N2CCC3(CCCO3)CC2)c2cc(=O)n(C3(C)CC3)cc12)c1cccc(C(F)F)c1F [Example 199, (R)-4-((1-(3-(difluoromethyl)-2-fluorophenyl)ethyl)amino)-6-(1-methylcyclopropyl)-1-(1-oxa-8-azaspiro[4.5]decan-8-yl)pyrido[3,4-d]pyridazin-7(6H)-one]	12.5 nM
C[C@@H](Nc1nnc(N2CCC3(CCOCC3)C2)c2cc(=O)n(C3(C)CC3)cc12)c1cccc(C(F)F)c1F [Example 200, (R)-4-((1-(3-(difluoromethyl)-2-fluorophenyl)ethyl)amino)-6-(1-methylcyclopropyl)-1-(8-oxa-2-azaspiro[4.5]decan-2-yl)pyrido[3,4-d]pyridazin-7(6H)-one]	4.2 nM
C[C@@H](Nc1nnc(N2CC3CC2CO3)c2cc(=O)n(C3(C)CC3)cc12)c1cccc(C(F)F)c1F (stereo partly drawn) [Example 201, 1-(2-oxa-5-azabicyclo[2.2.1]heptan-5-yl)-4-(((R)-1-(3-(difluoromethyl)-2-fluorophenyl)ethyl)amino)-6-(1-methylcyclopropyl) pyrido[3,4-d]pyridazin-7(6H)-one]	5.3 nM
C[C@@H](Nc1nnc(N2C3CCC2COC3)c2cc(=O)n(C3(C)CC3)cc12)c1cccc(C(F)F)c1F [Example 202, 1-(3-oxa-8-azabicyclo[3.2.1]octan-8-yl)-4-(((R)-1-(3-(difluoromethyl)-2-fluorophenyl)ethyl)amino)-6-(1-methylcyclopropyl) pyrido[3,4-d]pyridazin-7(6H)-one]	12.4 nM
C[C@@H](Nc1nnc(N2CCN3CCCCC3C2)c2cc(=O)n(C3(C)CC3)cc12)c1cccc(C(F)F)c1F (stereo partly drawn) [Example 203, 4-(((R)-1-(3-(difluoromethyl)-2-fluorophenyl)ethyl)amino)-6-(1-methylcyclopropyl)-1-(octahydro-2H-pyrido[1,2-a]pyrazin-2-yl)pyrido[3,4-d]pyridazin-7(6H)-one]	3.8 nM
C[C@@H](Nc1nnc(N2CCC3(CC2)CNC(=O)C3)c2cc(=O)n(C3(C)CC3)cc12)c1cccc(C(F)F)c1F [Example 204, (R)-4-((1-(3-(difluoromethyl)-2-fluorophenyl)ethyl)amino)-6-(1-methylcyclopropyl)-1-(3-oxo-2,8-diazaspiro[4.5]decan-8-yl)pyrido[3,4-d]pyridazin-7(6H)-one]	8 nM
C[C@@H](Nc1nnc(N2CC3COCC3C2)c2cc(=O)n(C3(C)CC3)cc12)c1cccc(C(F)F)c1F (stereo partly drawn) [Example 205, 4-(((R)-1-(3-(difluoromethyl)-2-fluorophenyl)ethyl)amino)-6-(1-methylcyclopropyl)-1-(tetrahydro-1H-furo[3,4-c]pyrrol-5(3H)-yl)pyrido[3,4-d]pyridazin-7(6H)-one]	4.1 nM
C[C@@H](Nc1nnc(N2CC3CN(C)CC3C2)c2cc(=O)n(C3(C)CC3)cc12)c1cccc(C(F)F)c1F (stereo partly drawn) [Example 206, 4-(((R)-1-(3-(difluoromethyl)-2-fluorophenyl)ethyl)amino)-6-(1-methylcyclopropyl)-1-(5-methylhexahydropyrrolo[3,4-c]pyrrol-2(1H)-yl)pyrido[3,4-d]pyridazin-7(6H)-one]	4.9 nM
C[C@@H](Nc1nnc(N2CCC[C@H](CO)C2)c2cc(=O)n(C3(C)CC3)cc12)c1cccc2c1CCC2(F)F [Example 207, 4-(((R)-1-(1,1-difluoro-2,3-dihydro-1H-inden-4-yl)ethyl)amino)-1-((S)-3-(hydroxymethyl)piperidin-1-yl)-6-(1-methylcyclopropyl) pyrido[3,4-d]pyridazin-7(6H)-one]	7.3 nM
C[C@@H](Nc1nnc(N2CCN(C)CC2)c2cc(=O)n(C3(C)CC3)cc12)c1cccc2c1CCC2(F)F [Example 208, (R)-4-((1-(1,1-difluoro-2,3-dihydro-1H-inden-4-yl)ethyl)amino)-6-(1-methylcyclopropyl)-1-(4-methylpiperazin-1-yl)pyrido[3,4-d]pyridazin-7(6H)-one]	4.5 nM
Cc1c([C@@H](C)Nc2nnc(N3CCN(C)CC3)c3cc(=O)n(C4(C)CC4)cc23)cccc1S(=O)(=O)C(F)F [Example 209, (R)-4-((1-(3-((difluoromethyl)sulfonyl)-2-methylphenyl)ethyl)amino)-6-(1-methylcyclopropyl)-1-(4-methylpiperazin-1-yl)pyrido[3,4-d]pyridazin-7(6H)-one]	4.4 nM
Cc1c(C(F)F)cccc1[C@@H](C)Nc1nnc(N2CCN(C)CC2)c2cc(=O)n(C3CC3)cc12 [Example 210, (R)-6-cyclopropyl-4-((1-(3-(difluoromethyl)-2-methylphenyl)ethyl)amino)-1-(4-methylpiperazin-1-yl)pyrido[3,4-d]pyridazin-7(6H)-one]	2.7 nM
Cc1c(C(F)F)cccc1[C@@H](C)Nc1nnc(N2CCN(C(C)C)CC2)c2cc(=O)n(C3CC3)cc12 [Example 211, (R)-6-cyclopropyl-4-((1-(3-(difluoromethyl)-2-methylphenyl)ethyl)amino)-1-(4-isopropylpiperazin-1-yl)pyrido[3,4-d]pyridazin-7(6H)-one]	5.2 nM
Cc1c(C(F)F)cccc1[C@@H](C)Nc1nnc(N2CCN(C3CC3)CC2)c2cc(=O)n(C3CC3)cc12 [Example 212, (R)-6-cyclopropyl-1-(4-cyclopropylpiperazin-1-yl)-4-((1-(3-(difluoromethyl)-2-methylphenyl)ethyl)amino)pyrido[3,4-d]pyridazin-7(6H)-one]	11.9 nM
Cc1c(C(F)F)cccc1[C@@H](C)Nc1nnc(N2CCN(C)CC2)c2cc(=O)n(C3(C)CC3)cc12 [Example 213, (R)-4-((1-(3-(difluoromethyl)-2-methylphenyl)ethyl)amino)-6-(1-methylcyclopropyl)-1-(4-methylpiperazin-1-yl)pyrido[3,4-d]pyridazin-7(6H)-one formate]	6.2 nM
C[C@@H](Nc1nnc(N2CCN(C)CC2)c2cc(=O)n(C3(C)CC3)cc12)c1cccc(S(F)(F)(F)(F)F)c1 [Example 214, (R)-6-(1-methylcyclopropyl)-1-(4-methylpiperazin-1-yl)-4-((1-(3-(pentafluoro-λ^6-sulfaneyl)phenyl)ethyl)amino)pyrido[3,4-d]pyridazin-7(6H)-one formate]	5 nM
Cc1c(C#N)cccc1[C@@H](C)Nc1nnc(N2CCN(C(C)C)CC2)c2cc(=O)n(C3CC3)cc12 [Example 215, (R)-3-(1-((6-cyclopropyl-1-(4-isopropylpiperazin-1-yl)-7-oxo-6,7-dihydropyrido[3,4-d]pyridazin-4-yl)amino)ethyl)-2-methylbenzonitrile]	8.6 nM
C[C@@H](Nc1nnc(N2CCN(C3CC3)CC2)c2cc(=O)n(C3(C)CC3)cc12)c1cccc(C(F)F)c1F [Example 218, (R)-1-(4-cyclopropylpiperazin-1-yl)-4-((1-(3-(difluoromethyl)-2-fluorophenyl)ethyl)amino)-6-(1-methylcyclopropyl) pyrido[3,4-d]pyridazin-7(6H)-one]	6 nM
C[C@@H](Nc1nnc(N2CCN(C)CC2)c2cc(=O)n(C3CCN(C)CC3)cc12)c1cccc(C(F)F)c1F [Example 223, (R)-4-((1-(3-(difluoromethyl)-2-fluorophenyl)ethyl)amino)-1-(4-methylpiperazin-1-yl)-6-(1-methylpiperidin-4-yl)pyrido[3,4-d]pyridazin-7(6H)-one]	5.4 nM
CCN1CCN(c2nnc(N[C@H](C)c3cccc(C#N)c3C)c3cn(C4CC4)c(=O)cc23)CC1 [Example 224, (R)-3-(1-((6-cyclopropyl-1-(4-ethylpiperazin-1-yl)-7-oxo-6,7-dihydropyrido[3,4-d]pyridazin-4-yl)amino)ethyl)-2-methylbenzonitrile]	8.4 nM
C[C@@H](Nc1nnc(N(C)C2CC2)c2cc(=O)n(C3(C)CC3)cc12)c1cccc(C(F)F)c1F [Example 225, (R)-1-(cyclopropyl(methyl)amino)-4-((1-(3-(difluoromethyl)-2-fluorophenyl)ethyl)amino)-6-(1-methylcyclopropyl) pyrido[3,4-d]pyridazin-7(6H)-one]	7.6 nM
